≈ marks a conversion by molar mass, not a printed value.

Assay in all cases: Antibacterial effect, dilution method on Mueller-Hinton agar (MIC)
Common to all, as to format: cell-based

The test system of test [1] is Staphilococcus aureus 209-P.
In test [2] the test system is Escherichia coli NIHJ C-2. The following applies: NIHJC2.
Test [3] relates to Krebsiella pneumoniae 8045.
The test system of test [4] is Serratia marcescens T-26. The following applies: T26.
Test [5] has as its system Proteus vulgaris 6897.
In test [6] the test system is Proteus morganii 4298. The following applies: Morganella morganii.
For test [7], the system named is Proteus rettgeri 4289. The settings on record: Providencia rettgeri.
Test [8] has as its system Enterobacter aerogenes F-1948. The following applies: Klebsiella aerogenes, F1948.
For test [9], the system named is Pseudomonas aerginosa 145.
The subject of test [10] is Pseudomonas sepatia F-2251. The settings on record: F2251.
Test [11] deals with Pseudomonas maltphilia F-3438. The following applies: F3438.

In the case of `CO/N=C(\C(=O)N[C@@H]1C(=O)N2C(C(=O)O)=C[C@H](Sc3nnnn3C)C[C@H]12)c1csc(N)n1` [Ex.15, [4R,6R,7S]-7-[2-(2-amino-4-thiazolyl)-2-syn-methoxyiminoacetamido]-4-(1-methyl-1,2,3,4-tetrazol-5-yl)-thio-1-azabicyclo[4,2,0]oct-2-en-8-oxo-2-carboxylic acid], the MIC (in general, the smallest concentration in the dilution series that meets the test's criterion for growth inhibition) in test [1] is 6.25 µg/mL (≈ 13 µM); in test [2], 0.1 µg/mL (≈ 0.209 µM); in test [3], 0.02 µg/mL (≈ 0.0417 µM); in test [4], 6.25 µg/mL (≈ 13 µM); in test [5] it was at most 0.01 µg/mL; in test [6] it was at most 0.01 µg/mL. The MIC in [7] was at most 0.01 µg/mL; in test [8] it was 50 µg/mL (≈ 104 µM); in [9], 12.5 µg/mL (≈ 26.1 µM); in test [10] it was 25 µg/mL (≈ 52.1 µM); in [11], above 100 µg/mL.

On to `CO/N=C(\C(=O)N[C@@H]1C(=O)N2C(C(=O)O)=C[C@@H](Sc3ccncc3)C[C@H]12)c1csc(N)n1` [Ex.23, sodium [4S,6R,7S]-7-[2-(2-amino-thiazol-4-yl)-2-syn-methoxyimino]-acetamido-4-(pyridin-4-yl)-thio-1-azabicyclo[4,2,0]oct-2-en-8-oxo-2-carboxylate], for which the MIC in test [1] was 3.13 µg/mL; in test [2], 0.39 µg/mL; in [3], 0.2 µg/mL; in [4] it was 25 µg/mL; in [5], at most 0.01 µg/mL; in test [6], 0.2 µg/mL. Besides, the MIC in test [7] is 0.02 µg/mL; in [8], 50 µg/mL; in test [9] it was 12.5 µg/mL; in [10], 12.5 µg/mL; in [11] it was above 100 µg/mL.

With `CO/N=C(\C(=O)N[C@@H]1C(=O)N2C(C(=O)O)=C[C@@H](N=[N+]=[N-])C[C@H]12)c1csc(N)n1` [Ex.26, [4S,6R,7S]-7-[2-(2-amino-4-thiazolyl)-2-syn-methoxyiminoacetamido]-4-azido-1-azabicyclo[4,2,0]oct-2-en-8-oxo-2-carboxylic acid], the MIC in test [1] is 6.25 µg/mL (≈ 15.4 µM); in [2], 0.05 µg/mL (≈ 0.123 µM); in [3], 0.02 µg/mL (≈ 0.0492 µM); in test [4] it was 6.25 µg/mL (≈ 15.4 µM); in test [5], at most 0.01 µg/mL; in test [6], 0.02 µg/mL (≈ 0.0492 µM). Besides, the MIC in [7] was at most 0.01 µg/mL; in test [8], 25 µg/mL (≈ 61.5 µM); in [9], 12.5 µg/mL (≈ 30.8 µM); in test [10], 25 µg/mL (≈ 61.5 µM); in test [11] it was above 100 µg/mL.

On to `CC(=O)Oc1ccc(C(=O)O/N=C(\C(=O)N[C@@H]2C(=O)N3C(C(=O)O)=C[C@H](N=[N+]=[N-])C[C@H]23)c2csc(N)n2)cc1OC(C)=O` [Ex. 6, [4R,6R,7S]-7-[2-(2-amino-4-thiazolyl)-2-syn-(3,4-diacetoxy)-benzoyloxyimino-acetamido]-4-azido-l-azabicyclo[4,2,0]oct-2-en-8-oxo-2-carboxylic acid], for which the MIC in test [1] is 3.13 µg/mL (≈ 5.11 µM); in [2] it was 0.05 µg/mL (≈ 0.0816 µM); in test [3] it was 0.02 µg/mL (≈ 0.0327 µM); in test [4], 0.05 µg/mL (≈ 0.0816 µM); in test [5] it was at most 0.01 µg/mL; in test [6] it was 0.05 µg/mL (≈ 0.0816 µM). The MIC is at most 0.01 µg/mL in test [7]; 3.13 µg/mL (≈ 5.11 µM) in test [8]; 0.1 µg/mL (≈ 0.163 µM) in test [9]; 0.02 µg/mL (≈ 0.0327 µM) in test [10]; 25 µg/mL (≈ 40.8 µM) in test [11].

With `CO/N=C(\C(=O)N[C@@H]1C(=O)N2C(C(=O)O)=C[C@H](Sc3nnnn3-c3ccccc3)C[C@H]12)c1csc(N)n1` [Ex. 13, [4R,6R,7S]-7-[2-(2-amino-4-thiazolyl)-2-syn-methoxyiminoacetamido]-4-(1-phenyl-1,2,3,4-tetrazol-5-yl)-thio-l-azabicyclo[4,2,0]oct-2-en-8-oxo-2-carboxylic acid], the MIC in test [1] came out at 3.13 µg/mL (≈ 5.78 µM); in test [2] it was 0.78 µg/mL (≈ 1.44 µM); in test [3] it was 0.39 µg/mL (≈ 0.72 µM); in test [4] it was 6.25 µg/mL (≈ 11.5 µM); in test [5] it was 0.02 µg/mL (≈ 0.0369 µM); in test [6], 0.78 µg/mL (≈ 1.44 µM). The MIC is 0.2 µg/mL (≈ 0.369 µM) in test [7]; 50 µg/mL (≈ 92.3 µM) in test [8]; 12.5 µg/mL (≈ 23.1 µM) in test [9]; 25 µg/mL (≈ 46.2 µM) in [10]; above 100 µg/mL in [11].

For the compound `CO/N=C(\C(=O)N[C@@H]1C(=O)N2C(C(=O)O)=C[C@H](N=[N+]=[N-])C[C@H]12)c1csc(N)n1` [Exs. 5 and 17, [4R, 6R, 7S]-7-[2-(2-amino-4-thiazolyl)-2-syn-methoxyiminoacetamido]-4-azido-1-azabicyclo [4,2,0]oct-2-en-8-oxo-2-carboxylic acid], the MIC in test [1] is 1.56 µg/mL (≈ 3.84 µM); in test [2], 0.1 µg/mL (≈ 0.246 µM); in test [3] it was 0.02 µg/mL (≈ 0.0492 µM); in test [4], 6.25 µg/mL (≈ 15.4 µM); in test [6], at most 0.01 µg/mL; in test [8] it was 25 µg/mL (≈ 61.5 µM). Further, the figures for the MIC in test [9], in [10] and in test [11] were 6.25 µg/mL (≈ 15.4 µM), 12.5 µg/mL (≈ 30.8 µM) and above 100 µg/mL, respectively.
